# Measured values from US20240360067A1, “DERIVATIVES OF ITACONIC ACID AND THEIR USE AS ANTI-INFLAMMATORY AGENTS” (Sitryx Therapeutics Limited, priority 2021, published 2024).
# What was measured:
# NRF2 = NRF2 activation assay (DiscoverX PathHunter NRF2 translocation kit, U2OS cells); type: cell-based; settings: Homo sapiens; for Emax: U2OS, normalised to dimethyl fumarate high control; for EC50: U2OS PathHunter cells, 6 hours
# IL-6 = test: THP-1 AlphaLISA IL-6 cytokine assay (PMA-differentiated THP-1, LPS then nigericin); type: cell-based; settings: Homo sapiens; differentiated THP-1 cells; 30 min pre-incubation, LPS 24 hr, nigericin 1 hour
# Protocol: (§1) Measuring Inhibitory Effects on IL-1β, and IL-6 Cytokine Output from THP-1s
# (§2) The cytokine inhibition profiles of compounds of formula (I) were determined in a differentiated THP-1 cell assay. All assays were performed in RPMI-1640 growth medium (Gibco), supplemented with 10% fetal bovine serum (FBS; Gibco), 1% penicillin-streptomycin and 1% sodium pyruvate unless specified otherwise. The IL-1β and IL-6 cytokine inhibition assays were each run in a background of differentiated THP-1 cells as described below. All reagents described were from Sigma-Aldrich unless specified otherwise. Compounds were prepared as 10 mM DMSO stocks.
# (§3) THP-1 cells were expanded as a suspension up to 80% confluence in appropriate growth medium. Cells were harvested, suspended, and treated with an appropriate concentration of phorbol 12-myristate 13-acetate (PMA) over a 72 hr period (37° C./5% CO2).
# (§4) Following 72 hrs of THP-1 cell incubation, cellular medium was removed and replaced with fresh growth media containing 1% of FBS. Working concentrations of compounds were prepared separately in 10% FBS treated growth medium and pre-incubated with the cells for 30 minutes (37° C./5% CO2). Following the 30 minute compound pre-incubation, THP-1s were treated with an appropriate concentration of LPS and the THP-1s were subsequently incubated for a 24 hr period (37° C./5% CO2). An appropriate final concentration of Nigericin was then dispensed into the THP-1 plates and incubated for 1 hour (37° C./5% CO2) before THP-1 supernatants were harvested and collected in separate polypropylene 96-well holding plates.
# (§5) Reagents from each of the IL-1β and IL-6 commercial kits (Perkin Elmer) were prepared and run according to the manufacturer's instructions. Subsequently, fluorescence signal detection in a microplate reader was measured (EnVision® Multilabel Reader, Perkin Elmer).
# (§6) Percentage inhibition was calculated per cytokine by normalizing the sample data to the high and low controls used within each plate (+/−LPS respectively).
# [1] = Hepatocyte stability assay, mouse; type: in vitro ADME; settings: 10 μM compound, 0.5×10^6 cells/mL, 60 min; for CIint: Mouse hepatocytes; for half-life at 10 μM: cryo-preserved hepatocytes, read-out: T½
# Text: (§7) Defrosted cryo-preserved hepatocytes (viability >70%) were used to determine the metabolic stability of a compound via calculation of intrinsic clearance (CIint; a measure of the removal of a compound from the liver in the absence of blood flow and cell binding). Clearance data are particularly important for in vitro work as they can be used in combination with in vivo data to predict the half-life and oral bioavailability of a drug.
# (§8) The metabolic stability in hepatocytes assay involved a time-dependent reaction using both positive and negative controls. The cells must be pre-incubated at 37° C. then spiked with test compound (and positive control); samples taken at pre-determined time intervals were analysed to monitor the change in concentration of the initial drug compound over 60 minutes. A buffer incubation reaction (with no hepatocytes present) acted as a negative control and two cocktail solutions, containing compounds with known high and low clearance values (verapamil/7-hydroxycoumarin and propranolol/diltiazem), acted as positive controls. • 1. The assay was run with a cell concentration of 0.5×10^6 cells/mL in Leibovitz buffer. • 2. All compounds and controls were run in duplicate. • 3. Compound concentration was 10 μM. • 4. All compounds and controls were incubated with both cells and buffer to show turnover is due to hepatic metabolism. • 5. All wells on the incubation plate had 326.7 μL of either cells or buffer added. • 6. Prior to assay, cell and buffer-only incubation plates were preincubated for 10 mins at 37° C. • 7. The assay was initiated by adding compounds, 3.3 μL of 1 mM in 10% DMSO-90% Buffer; final DMSO concentration is 0.1%. • 8. Samples were taken at regular timepoints (0, 5, 10, 20, 40, 60 min) until 60 mins. • 9. Sample volume was 40 μL and added to 160 μL of crash solvent (acetonitrile with internal standard) and stored on ice. • 10. At the end of the assay, the crash plates were centrifuged at 3500 rpm for 20 mins at 4° C. • 11. 80 μL of clear supernatant was removed and mixed with 80 μL of deionised water before being analysed by LC-MS/MS.
# (§9) Raw LC-MS/MS data were exported to, and analysed in, Microsoft Excel for determination of intrinsic clearance. The percentage remaining of a compound was monitored using the peak area of the initial concentration as 100%. Intrinsic clearance and half-life values were calculated using a graph of the natural log of percentage remaining versus the time of reaction in minutes.
# [2] = Hepatocyte stability assay, human; type: in vitro ADME; settings: 10 μM compound, 0.5×10^6 cells/mL, 60 min; for CIint: Human hepatocytes; for half-life at 10 μM: cryo-preserved hepatocytes, read-out: T½
# Text: as §7, §8, §9
# IL-1β = test: THP-1 AlphaLISA IL-1β cytokine assay (PMA-differentiated THP-1, LPS then nigericin); type: cell-based; settings: 30 min pre-incubation, LPS 24 hr, nigericin 1 hour
# Protocol: as §1, §2, §3, §4, §5, §6
# [3] = Homo sapiens, THP-1, differentiated THP-1 cells
SMILES,EC50 (NRF2; +GSH) [µM],EC50 (NRF2; −GSH) [µM],IC50 (IL-6) [µM],CIint [1] [μL min^−1 10^−6 cells],half-life at 10 μM [1] [min],CIint [2] [μL min^−1 10^−6 cells],half-life at 10 μM [2] [min],IC50 (IL-1β; [3]) [µM],IC50 (IL-1β; differentiated THP-1 cells) [µM],Emax (NRF2; +GSH) [%],Emax (NRF2; −GSH) [%],"IC50 (IL-1β; Homo sapiens, differentiated THP-1 cells) [µM]"
"C=C(CC(=O)NCC(N)=O)C(=O)OC1(c2ccc(C(F)(F)F)cc2)CCC1 [Example 21, 1-(4-(trifluoromethyl)phenyl)cyclobutyl 4-((2-amino-2-oxoethyl)amino)-2-methylene-4-oxobutanoate]",55,38,3.9,100,21,37,42,7.2,–,86,184,–
"C=C(CC(=O)O)C(=O)OC1(c2ccc(C(F)(F)F)cc2)CCC1 [Example 2, 3-((1-(4-(trifluoromethyl)phenyl)cyclobutoxy)carbonyl)but-3-enoic acid]",> 100,> 100,> 100,<3,> 460,9,126,4.4,–,14,26,–
"C=C(CC(=O)NCCN1CCOCC1)C(=O)OC1(c2ccc(C(F)(F)F)cc2)CCC1 [Example 13, 1-(4-(trifluoromethyl)phenyl)cyclobutyl 2-methylene-4-((2-morpholinoethyl)amino)-4-oxobutanoate]",48,38.8,8.1,516,4,126,12,6.5,8.5,84,174,–
"C/C(=C\C(=O)O)C(=O)OC1(c2ccc(C(F)(F)F)cc2)CCC1 [Example 23, 3-methyl-4-oxo-4-(1-(4-(trifluoromethyl)phenyl)cyclobutoxy)but-2-enoic acid]",> 100,2.8,> 100,<3,> 460,<3,> 460,4,–,4,39,–
"C=C(CC(=O)OCC(=O)O)C(=O)OC1(c2ccc(C(F)(F)F)cc2)CCC1 [Example 22, 2-((3-((1-(4-(trifluoromethyl)phenyl)cyclobutoxy)carbonyl)but-3-enoyl)oxy)acetic acid]",41.1,40,> 31.6,392,4,7,204,–,–,45,100,15.2
"C=C(CC(N)=O)C(=O)OC1(c2ccc(C(F)(F)F)cc2)CCC1 [Example 11, 1-(4-(trifluoromethyl)phenyl)cyclobutyl 4-amino-2-methylene-4-oxobutanoate]",45.7,33.1,13.2,162,9,9,139,9.9,–,100,117,–
"C=C(CC(=O)NC1CCOCC1)C(=O)OC1(c2ccc(C(F)(F)F)cc2)CCC1 [Example 20, 1-(4-(trifluoromethyl)phenyl)cyclobutyl 2-methylene-4-oxo-4-((tetrahydro-2H-pyran-4-yl)amino)butanoate]",31.4,14.4,2.6,668,3,85,18,2.9,–,63,101,–

# More lines, in order of falling EC50 (NRF2; +GSH), values ahead:
EC50 (NRF2; +GSH) [µM],EC50 (NRF2; −GSH) [µM],IC50 (IL-6) [µM],CIint [1] [μL min^−1 10^−6 cells],half-life at 10 μM [1] [min],CIint [2] [μL min^−1 10^−6 cells],half-life at 10 μM [2] [min],IC50 (IL-1β; [3]) [µM],IC50 (IL-1β; differentiated THP-1 cells) [µM],SMILES,Emax (NRF2; +GSH) [%],Emax (NRF2; −GSH) [%],"IC50 (IL-1β; Homo sapiens, differentiated THP-1 cells) [µM]"
50.7,40.2,3.8,161,13,32,48,2.5,–,"C=C(CC(=O)NCCO)C(=O)OC1(c2ccc(C(F)(F)F)cc2)CCC1 [Example 19, 1-(4-(trifluoromethyl)phenyl)cyclobutyl 4-((2-hydroxyethyl)amino)-2-methylene-4-oxobutanoate]",102,210,–
49.4,14.6,3.9,108,12,40,38,5.2,–,"C=C(CC(=O)NC1CCN(C)CC1)C(=O)OC1(c2ccc(C(F)(F)F)cc2)CCC1 [Example 14, 1-(4-(trifluoromethyl)phenyl)cyclobutyl 2-methylene-4-((1-methylpiperidin-4-yl)amino)-4-oxobutanoate]",95,80,–
39.4,14.7,3.8,92,14,31,52,5.2,–,"C=C(CC(=O)NC1CS(=O)(=O)C1)C(=O)OC1(c2ccc(C(F)(F)F)cc2)CCC1 [Example 18, 1-(4-(trifluoromethyl)phenyl)cyclobutyl 4-((1,1-dioxidothietan-3-yl)amino)-2-methylene-4-oxobutanoate]",70,90,–
